Measured values published in patent publication US7163931B2, “Compositions of estrogen-cyclodextrin complexes” (Schering Aktiengesellchaft, priority 2000, dated 2007).

Experiments:
[1] = Acid dissociation constant (pKa) by photometric titration in aqueous media; type: physicochemical
Method: The Acid Dissociation Constant of the EE-β-CD complex in aqueous media was determined.
In aqueous solution, the ethinyl estradiol-β-cyclodextrin complex dissociates into its components according to the law of mass action. […] The pKa was measured by a photometric titration method following the guidance given in the Environmental Assessment Technical Handbook.

[2] = type: physicochemical
Method: The molar content of each degradation products is expressed relatively to the initial molar content of ethinyl estradiol that was added to each formulation. Four formulations as well as the pure ethinyl estradiol and the ethinyl estradiol β-cyclodextrin complex were investigated.

Molecule | acid dissociation constant pKa [1] | pKa ([1]; acid dissociation constant pKa) | total known degradation products (% of initial content of EE) [2]
C#C[C@]1(O)CC[C@H]2[C@@H]3CCc4cc(O)ccc4[C@H]3CC[C@@]21C [EE, ethinyl estradiol] | approx. 10.25 | 10.25 ± 0.04 | –
ethinyl estradiol-β-Cyclodextrin complex [EE-β-CD] | – | – | 0.385 % of initial content of EE
